Test results from US6825206B1 (priority 2000, dated 2004).

Tests used:
U937 leukemia cell line = test: toxicity against U937 leukemia cell line; assay type: cell-based, human
Description: Untreated P388 WT (wild type) cells show dark wells where cells are viable.

human topI = molecular target: T1, human topI (Homo sapiens, UniProt P11387); assay type: biochemical; conditions: band of nicked DNA increases with concentration; FIG. 4
T1 sequence (P11387 1-765): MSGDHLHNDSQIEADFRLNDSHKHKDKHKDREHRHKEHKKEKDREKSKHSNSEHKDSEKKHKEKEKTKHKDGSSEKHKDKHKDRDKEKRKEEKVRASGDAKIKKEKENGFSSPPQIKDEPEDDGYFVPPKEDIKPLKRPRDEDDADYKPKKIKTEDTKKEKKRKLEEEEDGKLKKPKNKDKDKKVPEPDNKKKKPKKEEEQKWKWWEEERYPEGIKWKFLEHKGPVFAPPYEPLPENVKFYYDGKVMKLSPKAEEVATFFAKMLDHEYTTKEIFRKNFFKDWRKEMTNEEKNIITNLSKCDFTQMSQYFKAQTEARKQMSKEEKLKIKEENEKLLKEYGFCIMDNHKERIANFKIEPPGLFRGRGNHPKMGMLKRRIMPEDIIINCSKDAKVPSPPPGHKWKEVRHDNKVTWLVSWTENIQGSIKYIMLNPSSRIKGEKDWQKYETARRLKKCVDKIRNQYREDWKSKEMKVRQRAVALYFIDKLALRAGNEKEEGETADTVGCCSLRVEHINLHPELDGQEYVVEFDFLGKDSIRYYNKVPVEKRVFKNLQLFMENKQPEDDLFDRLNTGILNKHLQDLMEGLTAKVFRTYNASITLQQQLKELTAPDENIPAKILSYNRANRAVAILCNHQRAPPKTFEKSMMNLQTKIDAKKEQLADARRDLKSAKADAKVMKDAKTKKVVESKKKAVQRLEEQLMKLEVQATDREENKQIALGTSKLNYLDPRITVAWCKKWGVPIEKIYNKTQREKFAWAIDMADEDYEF
Description: DNA cleavage produced by human topI in pSK DNA;
The nicked DNA migrates to position 2 on these gels.

[1] = molecular target: T2, camptothecin-topo I-DNA complex (Homo sapiens, UniProt P11387); assay type: biochemical; conditions: after addition of NaCl; FIG. 5
T2 sequence (P11387 1-765): T1 sequence (P11387 1-765)
Description: In this assay, nicked DNA is first formed by the action of the camptothecins. Addition of NaCl perturbs the equilibrium and destabilizes the camptothecin-topo I-DNA complex. The persistence of the nicked DNA under these conditions indicates increased stability of the cleavable complex.

| Structure (SMILES) | IC50 (U937 leukemia cell line) [nM] | induction of nicked DNA (human topI) | persistence of nicked DNA / stabilization of the cleavable complex [1] | time after which nicked DNA is difficult to detect [1] [min] |
| --- | --- | --- | --- | --- |
| CC[C@@]1(O)C(=O)OCc2c1cc1n(c2=O)Cc2c-1nc1cc3c(cc1c2CCl)OCO3 [CMMDC, 7-chloromethyl-10,11-methylenedioxy-20(S)-camptothecin] | 7 |  |  |  |
| CC[C@@]1(O)C(=O)OCc2c1cc1n(c2=O)Cc2cc3cc4c(cc3nc2-1)OCO4 [MDC, 10,11-methylenedioxy-20(S)-camptothecin] |  | induce nicked DNA | show nicked DNA for longer periods of time |  |
| CC[C@@]1(O)C(=O)OCc2c1cc1n(c2=O)Cc2cc3ccccc3nc2-1 [CPT, camptothecin] |  | induce nicked DNA |  | 3 |
